Results from ChEMBL document CHEMBL4359843, “Linear and Rationally Designed Stapled Peptides Abrogate TLR4 Pathway and Relieve Inflammatory Symptoms in Rheumatoid Arthritis Rat Model” (J Med Chem, 2019).
Activity calls are given as the source filed them. The calls are words filed in the database; no cut-off is given here.

What was measured:
[1] = target: Toll-like receptor 4 (Homo sapiens, UniProt O00206); assay: Binding affinity to recombinant human TLR4 using phage displayed compound by Phage-ELISA
[2] = test system: RAW264.7; assay: Cytotoxicity against mouse RAW264.7 cells assessed as reduction in cell viability at 100 uM after 24 hrs by MTT assay; type: cell-based; details: raw264.7, 24 h
[3] = test system: RAW264.7; assay: Cytotoxicity against mouse RAW264.7 cells assessed as reduction in cell viability at 20 to 80 uM after 24 hrs by MTT assay; type: cell-based; details: raw264.7, 24 h

Sequence of Toll-like receptor 4 (O00206 whole entry): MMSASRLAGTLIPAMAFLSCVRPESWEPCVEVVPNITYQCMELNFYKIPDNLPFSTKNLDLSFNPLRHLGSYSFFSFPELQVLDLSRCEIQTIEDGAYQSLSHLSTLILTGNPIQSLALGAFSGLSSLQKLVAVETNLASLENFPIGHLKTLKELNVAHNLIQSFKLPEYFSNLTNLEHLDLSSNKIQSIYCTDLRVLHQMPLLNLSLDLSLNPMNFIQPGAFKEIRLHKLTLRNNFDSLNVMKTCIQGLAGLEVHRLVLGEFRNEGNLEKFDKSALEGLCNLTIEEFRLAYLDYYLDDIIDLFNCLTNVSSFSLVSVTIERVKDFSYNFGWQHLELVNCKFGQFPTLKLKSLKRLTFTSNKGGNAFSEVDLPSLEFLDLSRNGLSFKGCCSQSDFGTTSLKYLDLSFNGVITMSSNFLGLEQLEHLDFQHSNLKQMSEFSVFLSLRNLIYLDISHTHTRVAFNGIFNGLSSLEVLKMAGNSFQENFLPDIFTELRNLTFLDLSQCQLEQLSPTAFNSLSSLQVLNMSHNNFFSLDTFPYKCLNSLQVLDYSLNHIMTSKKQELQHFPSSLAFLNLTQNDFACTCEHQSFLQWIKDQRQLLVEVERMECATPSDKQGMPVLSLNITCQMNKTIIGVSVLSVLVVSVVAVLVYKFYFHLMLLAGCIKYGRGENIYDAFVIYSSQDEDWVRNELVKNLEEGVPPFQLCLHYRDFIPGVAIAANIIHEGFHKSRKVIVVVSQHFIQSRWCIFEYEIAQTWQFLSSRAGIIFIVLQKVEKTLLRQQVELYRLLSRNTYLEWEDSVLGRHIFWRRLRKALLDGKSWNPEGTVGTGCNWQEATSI

Substance | Activity [1] | Activity [2] | Activity [3]
H-FGRYFPCLNWLG-OH | Active | Toxic | Non-Toxic
H-FWIFSRYPGASA-OH | Active | Toxic | Non-Toxic
H-HWWHFHSLRWLG-OH | Active | Toxic | Non-Toxic
H-LWWCFHSLRWLG-OH | Active | Toxic | Non-Toxic
